Results as given in patent publication US8809057B2, “Methods of evaluating gene expression levels” (Raytheon BBN Technologies Corp., priority 2012, dated 2014).

What was measured:
Assay type in all cases: cell-based
[1] = system: Tre genetic element (rtTA); experiment: Example 2 multiplex circuit: small molecule effector (dox) transfer curve, input reporter EYFP; details: Example 2, FIG. 10, normalized input reporter EYFP
Text: The multiplex circuit to be characterized is shown in FIG. 9. he regulatory protein transcription unit and the input reporter protein transcription unit, which are co-expressed in this example, are under the control of the small molecule effector doxycycline (dox), which binds to the constitutively expressed protein rtTA to regulate transcription from the Tre genetic element. In this example, the effector transcription unit comprises a constitutive effector genetic element (CAG) and a coding sequence for an effector-regulated protein (rtTA), wherein the constitutive effector genetic element (CAG) controls expression of the effector-controlled protein (rtTA). In this example, the effector transcription unit further comprises coding sequence for the VP16-GAL4 activator which binds UAS-T1 in the output transcription unit. In the absence of dox, Tal1 is not expressed and the constitutively expressed VP16-GAL4 activator binds to UAS-T1, leading to expression of the mKate output reporter. The effector transcription unit contains a coding sequence for a 2A self-cleaving peptide allowing for expression of rtTA and VP16-GAL4 from the same construct. The test regulatory protein transcription unit and the input transcription unit are co-expressed from a genetic element responsive to a small molecule effector (Tre). […] The input reporter protein EYFP has a yellow fluorescence emission. […]

[2] = system: Tre genetic element (rtTA); experiment: Example 1 multiplex circuit: small molecule effector (dox) transfer curve, input reporter EBFP2 by FACS; details: Example 1, FIG. 7, normalized input reporter EBFP2, HEK 293 FT
Text: Both the regulatory protein transcription unit and the input reporter protein transcription unit are under the control of the small molecule effector doxycycline (dox). In this example, the activity of the small molecule effector (dox) is mediated through an effector transcription unit. The effector transcription unit comprises a constitutive effector genetic element (pHef1a) and a coding sequence for an effector-regulated protein (rtTA), wherein the constitutive effector genetic element (pHef1a) controls expression of the effector-controlled protein (rtTA). […]
The input transcription unit comprises a genetic element responsive to a small molecule effector (Tre) and a coding sequence for the input reporter protein (EBFP2), wherein the genetic element responsive to the effector-regulated protein (Tre) controls expression of the input reporter protein (EBPF2). […] The input reporter protein EBFP2 has a blue fluorescence emission. […]
(§1) The cells are then subjected to FACS analysis and the amounts of input, output and constitutive protein fluorescence is measured for each cell. […]
(§2) While the colors for the input, output and constitutive protein fluorescence are selected to have as little overlap as possible, there is some inherent overlap between the different colors. […]

Hef1a-LacO1Oid = experiment: Example 1 multiplex circuit: regulatory protein (LacI) transfer curve, output reporter EYFP by FACS; details: Example 1, FIG. 8, normalized output reporter EYFP
Text: The regulatory protein transcription unit comprises a genetic element responsive to a small molecule effector (Tre) and a coding sequence for the regulatory protein (LacI), wherein the genetic element responsive to the genetic element responsive to the effector-regulated protein (Tre) controls expression of the regulatory protein (LacI). In the present case, the genetic element responsive to the effector-regulated protein (Tre) is responsive to the effector-controlled protein (rtTA).
The output transcription unit comprising a genetic element responsive to the regulatory protein (Hef1a-LacO1Oid) and a coding sequence for the output reporter protein (EYFP), wherein the genetic element responsive to the regulatory protein (Hef1a-LacO1Oid) controls expression of the output reporter protein (EYFP). The output reporter protein EYFP has a yellow fluorescence emission. […]
as §1, §2

Which “dox level at which the level of IFP saturates at a high value” [1] does the source give for C[C@H]1c2cccc(O)c2C(=O)C2=C(O)[C@]3(O)C(=O)C(C(N)=O)=C(O)[C@@H](N(C)C)[C@@H]3[C@@H](O)[C@@H]21 [dox, doxycycline] here?
Its value is “more than 200 nM”.

What about the “dox level at which the level of IFP stays low regardless of the plasmid count” value [1] of the same molecule?
Its value is “less than or equal to 3 nM”.

What about the “dox level at which the level of IFP saturates at a high value” [2] of the same molecule?
The value was “more than 200 nM”.

And the “dox level at which the level of IFP stays low regardless of the plasmid count” value [2]?
The value was “less than or equal to 3 nM”.

B1: LacI: test regulatory protein (Lac repressor) binding Hef1a-LacO1Oid (protein, UniProt P03023 1-360, looked up)
Lactose operon repressor: MKPVTLYDVAEYAGVSYQTVSRVVNQASHVSAKTREKVEAAMAELNYIPNRVAQQLAGKQSLLIGVATSSLALHAPSQIVAAIKSRADQLGASVVVSMVERSGVEACKAAVHNLLAQRVSGLIINYPLDDQDAIAVEAACTNVPALFLDVSDQTPINSIIFSHEDGTRLGVEHLVALGHQQIALLAGPLSSVSARLRLAGWHKYLTRNQIQPIAEREGDWSAMSGFQQTMQMLNEGIVPTAMLVANDQMALGAMRAITESGLRVGADISVVGYDDTEDSSCYIPPLTTIKQDFRLLGQTSVDRLLQLSQGQAVKGNQLLPVSLVKRKTTLAPNTQTASPRALADSLMQLARQVSRLESGQ
B1 was tested. Which “repression of the output of Hef1a-LacO1Oid” value (Hef1a-LacO1Oid) did it give?
Its value is 100 fold.
